Experimental data reported in US20120115793A1, “PEPTIDOMIMETIC MACROCYCLES” (Alleron Therapeutics, Inc, priority 2008, published 2012).
Like-named read-outs stand apart in the source and are kept apart here. Where a SMILES comes first, the peptide text is derived from it. Bridges are numbered along the chain shown (N, C = ends). [ ]: non-standard residue; d: D form. S5 = C=CCCC[C@](C)(N)C(=O)O

Key:
Molt-4 cell line = type: cell-based; settings: 48 h
Protocol: Molt-4 cell line (ATCC catalog #CRL-1582) was grown in specific serum-supplemented media (RPMI-1640, Invitrogen catalog #72400) as recommended by ATCC. A day prior to the initiation of the study, cells were split at optimal cell density (2×10^5-5×10^5 cells/ml) to assure actively dividing cells. The next day, cells were washed twice in serum-free Opti-MEM media (Invitrogen, Catalog #51985) and cells were then plated at optimal cell density (10,000 cells/well) in 50 μl Opti-MEM media or Opti-MEM supplemented with 2%, 4% or 10% human serum (Bioreclamation, catalog #HMSRM) in 96-well white tissue culture plate (Nunc, catalog #136102).
For serum free experiment, peptidomimetic macrocycles were diluted from 2 mM stocks (100% DMSO) in sterile water to prepare 400 μM working solutions. The macrocycles and controls were diluted 10-fold first and then serially two-fold diluted in Opti-MEM in dosing plates to provide concentrations of between 1.2 and 40 μM. 50 μL of each dilution was then added to the appropriate wells of the test plate to achieve final concentrations of the polypeptides equal to between 0.6 to 20 μM. For studies using Opti-MEM supplemented with human serum (Bioreclamation, catalog #HMSRM), peptidomimetic macrocycles were diluted from 10 mM stocks (100% DMSO) in sterile water to prepare 2 mM working solutions. The peptide macrocycles and controls were diluted 10-fold first and then serially two-fold diluted in Opti-MEM in the presence of 2%, 4% or 10% of human serum to provide concentrations of the polypeptides equal to between 6.25 to 200 μM in dosing plates. 50 μL of each dilution was then added to the appropriate welts of the test plate to achieve final concentrations of the polypeptides equal to between 3.125 to 100 μM. Controls included wells without polypeptides containing the same concentration of DMSO as the wells containing the macrocycles, wells containing 0.1% Triton X-100 and wells containing no cells. Plates were incubated for 48 hours at 37° C. in humidified 5% CO2 atmosphere.
At the end of the incubation period, CellTiter-Glo assay was performed according to manufacturer's instructions (Promega, catalog #G7573) and luminescence was measured using Synergy HT Plate reader (BioTek).
The following macrocycles derived from the human MAML peptide sequences were tested in cell viability assays with the MOLT-4 tumor cell line: […]

[1] = system: human serum proteins (HSA); assay: Apparent affinity to human serum proteins (Kd*) by EC50 shift analysis; type: in vitro ADME
Source text: The measurement of apparent Kd values for serum protein by EC50 shift analysis provides a simple and rapid means of quantifying the propensity of experimental compounds to bind HSA and other serum proteins. A linear relationship exists between the apparent EC50 in the presence of serum protein (EC'50) and the amount of serum protein added to an in vitro assay. This relationship is defined by the binding affinity of the compound for serum proteins, expressed as Kd*. This term is an experimentally determined, apparent dissociation constant that may result from the cumulative effects of multiple, experimentally indistinguishable, binding events. The form of this relationship is presented here in Eq. 0.3, and its derivation can be found in Copeland et al, Biorg. Med. Chem. Lett. 2004, 14:2309-2312.
A significant proportion of serum protein binding can be ascribed to drug interactions with HSA, due to the very high concentration of this protein in serum (35-50 g/L or 530-758 μM). To calculate the Kd value for these compounds we have assumed that the shift in EC50 upon protein addition can be ascribed fully to the HSA present in the added serum, where P is 700 μM for 100% serum, P is 70 μM for 10% serum, etc. We further made the simplifying assumption that all of the compounds bind HSA with a 1:1 stoichiometry, so that the term n in Eq. (0.3) is fixed at unity. With these parameters in place we calculated the Kd* value for each stapled peptide from the changes in EC50 values with increasing serum (and serum protein) concentrations by nonlinear regression analysis of Eq. 0.3 using Mathematica 4.1 (Wolfram Research, Inc., www.wolfram.com). EC'50 values in whole blood are estimated by setting P in Eq. 0.3 to 700 μM [HSA].
The free fraction in blood is estimated using the following equation, as derived by Trainor, Expert Opin. Drug Disc., 2007, 2(1):51-64, where [HSA] total is set at 700 μM.
The following macrocycles derived from the human MAML peptide sequences were tested in cell viability assays (described above) with the MOLT-4 tumor cell line at a range of human serum protein concentrations to determine their apparent affinity to human serum proteins and the projected EC50s in whole human blood: […]

## CC[C@H](C)[C@H](NC(=O)[C@H](CCCNC(=N)N)NC(=O)[C@H](CCCNC(=N)N)NC(=O)[C@H](CCCNC(=N)N)NC(=O)[C@H](CC(C)C)NC(=O)[C@H](CCCNC(=N)N)NC(=O)[C@H](CCC(=O)O)NC(C)=O)C(=O)N[C@@]1(C)CCCC=CCCC[C@@](C)(C(=O)N[C@@H](Cc2c[nH]cn2)C(=O)N[C@@H](Cc2c[nH]cn2)C(=O)N[C@@H](CO)C(=O)N[C@H](C(N)=O)[C@@H](C)O)NC(=O)[C@H](CCCNC(=N)N)NC(=O)[C@H](C)NC(=O)[C@H](CC(C)C)NC1=O [Compound 4, Ac-ERLRRRI$LAR$HHST-NH2] (Ac-ERLRRRI[S5]LAR[S5]HHST-NH2; staple 8-12)
Molt-4 cell line
  EC50: > 20000 nM
[1]; human
  Kd: < 100 nM
[1]; human, serum
  fraction unbound: < 0.001

## CC[C@H](C)[C@H](NC(=O)[C@H](CCCNC(=N)N)NC(=O)[C@H](CCCNC(=N)N)NC(=O)[C@H](CCCNC(=N)N)NC(=O)[C@H](CC(C)C)NC(=O)[C@H](CCCNC(=N)N)NC(=O)[C@H](CCC(=O)O)NC(C)=O)C(=O)N[C@@]1(C)CCCC=CCCC[C@@](C)(C(=O)N[C@@H](Cc2c[nH]cn2)C(=O)N[C@@H](Cc2c[nH]cn2)C(=O)N[C@@H](CO)C(=O)N[C@H](C(N)=O)[C@@H](C)O)NC(=O)[C@H](CCCNC(=N)N)NC(=O)[C@H](CS)NC(=O)[C@H](CC(C)C)NC1=O [Compound 1, Ac-ERLRRRI$LCR$HHST-NH2] (Ac-ERLRRRI[S5]LCR[S5]HHST-NH2; staple 8-12)
[1]; human
  Kd: < 100 nM
[1]; human, serum
  fraction unbound: < 0.001

## CC[C@H](C)[C@H](NC(=O)[C@H](CCCNC(=N)N)NC(=O)[C@H](CCCNC(=N)N)NC(=O)[C@H](CCCNC(=N)N)NC(=O)[C@H](CC(C)C)NC(=O)[C@H](C)NC(C)=O)C(=O)N[C@@]1(C)CCCC=CCCC[C@@](C)(C(=O)N[C@@H](Cc2c[nH]cn2)C(=O)N[C@@H](Cc2c[nH]cn2)C(=O)N[C@@H](CO)C(=O)N[C@H](C(N)=O)[C@@H](C)O)NC(=O)[C@H](C)NC(=O)[C@H](CS)NC(=O)[C@H](CC(C)C)NC1=O [Compound 19, Ac-ALRRRI$LCA$HHST-NH2] (Ac-ALRRRI[S5]LCA[S5]HHST-NH2; staple 7-11)
[1]; human, estimated with [HSA] total set at 700 μM, read-out: Free Fraction est. in blood
  fraction unbound: 0.001
[1]; nonlinear regression of EC50 shift with increasing human serum, 1:1 HSA binding assumed, 700 μM HSA for 100% serum, read-out: Serum Kd*
  Kd: 600 nM
